According to patent US10208027B2, “Processes for preparing ATR inhibitors” (Vertex Pharmaceuticals Incorporated, priority 2011, dated 2019):
pIC50, pKi: −log10 of the molar value.

Assays:
[1] = test system: HCT116 colorectal cancer cells; test: Single agent HCT116 activity, 96 h cell viability (MTS) assay; type: cell-based; conditions: Homo sapiens, HCT-116, 96 h MTS viability, read-out: Single agent HT116 IC50
Protocol: Compounds can be screened for single agent activity against HCT116 colorectal cancer cells using a 96 h cell viability (MTS) assay. HCT116 are plated at 470 cells per well in 96-well polystyrene plates (Costar 3596) in 150 μl of McCoy's 5A media (Sigma M8403) supplemented with 10% foetal bovine serum (JRH Biosciences 12003), Penicillin/Streptomycin solution diluted 1:100 (Sigma P7539), and 2 mM L-glumtamine (Sigma G7513), and allowed to adhere overnight at 37° C. in 5% CO2. Compounds are then added to the cell media in 2-fold serial dilutions from a top final concentration of 10 μM as a full matrix of concentrations in a final cell volume of 200 μl, and the cells are then incubated at 37° C. in 5% CO2. After 96 h, 40 μl of MTS reagent (Promega G358a) is added to each well and the cells are incubated for 1 h at 37° C. in 5% CO2. Finally, absorbance is measured at 490 nm using a SpectraMax Plus 384 reader (Molecular Devices) and IC50 values can be calculated.

[2] = test system: HCT116 colorectal cancer cells; test: Cisplatin sensitization assay, 96 h cell viability (MTS); type: cell-based; conditions: concentration of compound required to reduce the IC50 of Cisplatin alone by at least 3-fold; HCT116, 96 h MTS
Protocol: Compounds can be screened for their ability to sensitize HCT116 colorectal cancer cells to Cisplatin using a 96 h cell viability (MTS) assay. […] Compounds and Cisplatin are then both added simultaneously to the cell media in 2-fold serial dilutions from a top final concentration of 10 μM as a full matrix of concentrations in a final cell volume of 200 μl, and the cells are then incubated at 37° C. in 5% CO2. After 96 h, 40 μl of MTS reagent (Promega G358a) is added to each well and the cells are incubated for 1 h at 37° C. in 5% CO2.

full-length ATR = full-length ATR (Homo sapiens (Human), UniProt Q13535); test: ATR inhibition assay (radioactive-phosphate incorporation); type: biochemical
full-length ATR, sequence (Q13535 whole entry): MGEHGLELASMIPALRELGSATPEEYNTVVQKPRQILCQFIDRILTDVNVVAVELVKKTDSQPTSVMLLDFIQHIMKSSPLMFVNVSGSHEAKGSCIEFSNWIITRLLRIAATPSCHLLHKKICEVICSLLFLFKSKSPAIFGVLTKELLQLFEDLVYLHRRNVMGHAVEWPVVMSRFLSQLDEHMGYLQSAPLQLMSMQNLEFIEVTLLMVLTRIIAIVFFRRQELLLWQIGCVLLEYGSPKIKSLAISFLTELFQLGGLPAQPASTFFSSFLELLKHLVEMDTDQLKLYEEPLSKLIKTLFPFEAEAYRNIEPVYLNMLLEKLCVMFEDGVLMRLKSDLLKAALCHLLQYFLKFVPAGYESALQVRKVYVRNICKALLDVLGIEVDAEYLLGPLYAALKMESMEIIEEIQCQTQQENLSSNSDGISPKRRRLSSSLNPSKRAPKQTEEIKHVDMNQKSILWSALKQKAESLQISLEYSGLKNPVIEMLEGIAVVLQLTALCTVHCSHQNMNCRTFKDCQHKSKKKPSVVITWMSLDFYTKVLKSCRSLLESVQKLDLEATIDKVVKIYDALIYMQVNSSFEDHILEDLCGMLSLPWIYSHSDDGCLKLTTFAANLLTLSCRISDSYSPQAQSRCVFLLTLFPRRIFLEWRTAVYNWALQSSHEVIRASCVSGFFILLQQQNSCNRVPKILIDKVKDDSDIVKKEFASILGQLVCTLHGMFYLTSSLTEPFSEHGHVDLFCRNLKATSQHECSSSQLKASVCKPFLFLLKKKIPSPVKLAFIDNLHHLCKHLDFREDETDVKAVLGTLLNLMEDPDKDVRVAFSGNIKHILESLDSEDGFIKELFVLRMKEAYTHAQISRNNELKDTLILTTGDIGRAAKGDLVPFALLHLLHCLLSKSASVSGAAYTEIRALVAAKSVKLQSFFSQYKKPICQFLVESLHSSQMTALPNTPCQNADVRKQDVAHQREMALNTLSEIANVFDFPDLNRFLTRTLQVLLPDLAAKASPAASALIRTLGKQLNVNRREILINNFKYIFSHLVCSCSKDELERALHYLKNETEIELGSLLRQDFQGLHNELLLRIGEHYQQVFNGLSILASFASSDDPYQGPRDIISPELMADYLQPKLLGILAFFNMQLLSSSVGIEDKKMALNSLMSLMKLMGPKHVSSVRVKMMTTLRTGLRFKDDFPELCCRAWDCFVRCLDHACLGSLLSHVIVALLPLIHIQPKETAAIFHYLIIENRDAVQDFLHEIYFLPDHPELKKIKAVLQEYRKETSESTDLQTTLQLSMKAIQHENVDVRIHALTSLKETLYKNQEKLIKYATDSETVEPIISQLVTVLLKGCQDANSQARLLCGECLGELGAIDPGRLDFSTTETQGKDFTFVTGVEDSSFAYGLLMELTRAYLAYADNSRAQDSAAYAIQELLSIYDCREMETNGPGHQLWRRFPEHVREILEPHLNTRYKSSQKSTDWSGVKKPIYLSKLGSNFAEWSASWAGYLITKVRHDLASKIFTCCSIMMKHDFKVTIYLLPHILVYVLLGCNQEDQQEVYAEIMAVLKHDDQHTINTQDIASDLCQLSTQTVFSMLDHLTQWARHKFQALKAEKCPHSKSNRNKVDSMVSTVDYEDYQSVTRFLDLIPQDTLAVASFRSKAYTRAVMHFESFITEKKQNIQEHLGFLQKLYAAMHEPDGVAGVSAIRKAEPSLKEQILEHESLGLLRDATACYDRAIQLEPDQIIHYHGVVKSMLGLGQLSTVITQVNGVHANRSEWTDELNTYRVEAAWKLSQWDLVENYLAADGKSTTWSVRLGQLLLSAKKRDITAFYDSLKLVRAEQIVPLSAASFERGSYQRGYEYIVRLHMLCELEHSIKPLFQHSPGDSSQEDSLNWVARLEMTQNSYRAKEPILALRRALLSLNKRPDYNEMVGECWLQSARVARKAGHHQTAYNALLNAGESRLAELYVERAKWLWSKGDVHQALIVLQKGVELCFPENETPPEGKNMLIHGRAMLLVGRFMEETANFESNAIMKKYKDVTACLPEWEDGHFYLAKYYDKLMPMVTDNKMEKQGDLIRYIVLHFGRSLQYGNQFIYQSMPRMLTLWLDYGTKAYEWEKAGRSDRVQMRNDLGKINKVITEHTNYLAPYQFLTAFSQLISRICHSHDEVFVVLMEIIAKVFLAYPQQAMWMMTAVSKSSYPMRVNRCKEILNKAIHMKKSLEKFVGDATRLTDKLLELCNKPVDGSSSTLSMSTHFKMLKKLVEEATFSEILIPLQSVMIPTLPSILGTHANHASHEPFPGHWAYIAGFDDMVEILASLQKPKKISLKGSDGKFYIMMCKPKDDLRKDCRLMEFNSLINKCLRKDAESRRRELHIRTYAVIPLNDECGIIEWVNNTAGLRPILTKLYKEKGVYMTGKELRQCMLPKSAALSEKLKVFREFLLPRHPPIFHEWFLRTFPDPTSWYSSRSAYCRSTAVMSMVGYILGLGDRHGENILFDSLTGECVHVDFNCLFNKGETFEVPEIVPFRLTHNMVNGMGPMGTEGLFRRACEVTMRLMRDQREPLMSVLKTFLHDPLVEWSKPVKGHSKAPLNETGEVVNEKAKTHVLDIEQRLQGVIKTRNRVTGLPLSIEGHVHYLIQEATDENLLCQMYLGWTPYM
Protocol: Compounds can be screened for their ability to inhibit ATR kinase using a radioactive-phosphate incorporation assay. Assays are carried out in a mixture of 50 mM Tris/HCl (pH 7.5), 10 mM MgCl2 and 1 mM DTT. Final substrate concentrations are 10 μM [γ-33P]ATP (3 mCi 33P ATP/mmol ATP, Perkin Elmer) and 800 μM target peptide ([sequence]).
Assays are carried out at 25° C. in the presence of 5 nM full-length ATR. An assay stock buffer solution is prepared containing all of the reagents listed above, with the exception of ATP and the test compound of interest. […] The plate is pre-incubated for 10 minutes at 25° C. and the reaction initiated by addition of 15 μL [γ-33P]ATP (final concentration 10 μM).
The reaction is stopped after 24 hours by the addition of 30 μL 0.1M phosphoric acid containing 2 mM ATP. A multiscreen phosphocellulose filter 96-well plate (Millipore, Cat no. MAPHNOB50) is pretreated with 100 μL 0.2M phosphoric acid prior to the addition of 45 μL of the stopped assay mixture. […]
After removing mean background values for all of the data points, Ki(app) data are calculated from non-linear regression analysis of the initial rate data using the Prism software package (GraphPad Prism version 3.0cx for Macintosh, GraphPad Software, San Diego Calif., USA).

## [2H]C([2H])([2H])NC([2H])([2H])c1ccc(-c2cc(-c3nc(-c4ccc(S(=O)(=O)C(C)C)cc4)cnc3N)on2)cc1 [II-2, 3-[3-[4-[dideuterio-(trideuteriomethylamino)methyl]phenyl]isoxazol-5-yl]-5-(4-isopropylsulfonylphenyl)pyrazin-2-amine]
[1]
  pIC50: 7.34
[2]
  Cisplatin sensitization: 29 nM

## [2H]C([2H])([2H])NCc1ccc(-c2cc(-c3nc(-c4ccc(S(=O)(=O)C(C)C)cc4)cnc3N)on2)cc1 [II-3, 5-(4-isopropylsulfonylphenyl)-3-[3-[4-[(trideuteriomethylamino)methyl]phenyl]isoxazol-5-yl]pyrazin-2-amine]
[1]
  pIC50: 7.18
[2]
  Cisplatin sensitization: 39 nM

## [2H]C([2H])(NC)c1ccc(-c2cc(-c3nc(-c4ccc(S(=O)(=O)C(C)C)cc4)cnc3N)on2)cc1 [II-1, 3-[3-[4-[dideuterio(methylamino)methyl]phenyl]isoxazol-5-yl]-5-(4-isopropylsulfonylphenyl)pyrazin-2-amine]
[1]
  pIC50: 7.21
[2]
  Cisplatin sensitization: 39 nM

## CC(C)(C#N)c1cc(-c2cnc(N)c(-c3cc(-c4ccc(CNC5CCOCC5)cc4)no3)n2)ccn1 [Compound I-1, 2-(4-(5-amino-6-(3-(4-((tetrahydro-2H-pyran-4-ylamino)methyl)phenyl)isoxazol-5-yl)pyrazin-2-yl)pyridin-2-yl)-2-methylpropanenitrile]
full-length ATR
  pKi: > 9.00

## 5-(4-(tert-butylsulfonyl)phenyl)-3-(3-(4-((methylamino)methyl)phenyl)isoxazol-5-yl)pyrazin-2-amine [Compound I-2]
full-length ATR
  pKi: > 9.00
